Reference: US4803066A, “Antibacterial and/or antifungal compositions for topical application” (Smith & Nephew Associated Companies p.l.c., priority 1986, dated 1989)
Converted amounts (≈) assume the structure as drawn.

How the values were obtained:
C. albicans 159 = test: microbe, parasite or virus in culture; details: Candida albicans, 159, read-out: MIC: Individual Agents
Experimental: (§1) The test method employed was as follows suspensions of each agent or combination of agents were prepared at a range of dilutions in 60% propylene glycol in water. Isosensitest (trade mark) broth was inoculated with a test organism at a concentration of 10^5 organisms per ml and a sample was dispensed into wells of a microliter plate. The range of concentration of test substance or combination was added to the wells so that there was a further 10-fold dilution of the test substance or combination. The plates were incubated for either 24 or 48 hours at 37° C., and the MIC read as the lowest concentration giving no visible growth. For each organism tested all conditions of inoculum preparation, inoculation and incubation were standardised throughout.

Staph. aureus 1300 = test: microbe, parasite or virus in culture; details: Staphylococcus aureus, 1300, read-out: MIC: Individual Agents
Experimental: as §1

Staph. aureus NCTC 10788 = test: microbe, parasite or virus in culture; details: Staphylococcus aureus, NCTC10788, read-out: MIC: Individual Agents
Experimental: as §1

C. albicans V = test: MIC of agents individually and in combination (broth, microtitre plate); details: Candida albicans, read-out: MIC: Individual Agents
Experimental: as §1

C. albicans I = test: microbe, parasite or virus in culture; details: Candida albicans, read-out: MIC: Individual Agents
Experimental: as §1

C. albicans V ATCC 10231 = test: MIC of silver nitrate and clotrimazole individually and in combination (broth, microtitre plate); type: cell-based, Candida albicans; details: for MIC: Combination of Agents, Clotrimazole: in combination with silver nitrate; for MIC: Combination of Agents, Clotrimazole / MIC: Individual Agents / MIC: Combination of Agents, Silver nitrate: C. albicans V ATCC 10231; for MIC: Individual Agents: alone; for MIC: Combination of Agents, Silver nitrate: in combination with clotrimazole
Experimental: as §1

Enterococcus 0022 = test: microbe, parasite or virus in culture; details: Enterococcus, 0022, read-out: MIC: Individual Agents
Experimental: as §1

Staph. aureus = test: microbe, parasite or virus in culture; details: Staphylococcus aureus, read-out: MIC: Individual Agents
Experimental: as §1

E. Coli 0029 = test: microbe, parasite or virus in culture; details: Escherichia coli, read-out: MIC: Individual Agents
Experimental: as §1

SMILES | MIC (C. albicans 159) [µg/mL] | MIC (Staph. aureus 1300) [µg/mL] | MIC (Staph. aureus NCTC 10788) [µg/mL] | MIC (C. albicans V) [µg/mL] | MIC (C. albicans I) [µg/mL] | MIC (C. albicans V ATCC 10231; Candida albicans, ATCC10231, read-out: MIC: Individual Agents) [µg/mL] | MIC: Combination of Agents, Clotrimazole (C. albicans V ATCC 10231; Table 3) [µg/mL] | MIC: Individual Agents (C. albicans V ATCC 10231; Table 4) [µg/mL] | MIC: Combination of Agents, Clotrimazole (C. albicans V ATCC 10231; Table 4) [µg/mL] | MIC (Enterococcus 0022) [µg/mL] | MIC: Individual Agents (C. albicans V ATCC 10231; Table 3) [µg/mL] | MIC: Combination of Agents, Silver nitrate (C. albicans V ATCC 10231; Table 3) [µg/mL] | MIC: Combination of Agents, Silver nitrate (C. albicans V ATCC 10231; Table 4) [µg/mL] | MIC (Staph. aureus) [µg/mL] | MIC (E. Coli 0029) [µg/mL]
Clc1ccccc1C(c1ccccc1)(c1ccccc1)n1ccnc1 [Clotrimazole, 1-{(2-chlorophenyl)diphenylmethyl}-1H-imidazole] | 25 (≈ 72.5 µM) | 100 (≈ 290 µM) | 100 (≈ 290 µM) | 0.5 | 5 (≈ 14.5 µM) | 12.5 | 3.125 | 12.5 | 3.125 | 100 (≈ 290 µM) |  |  |  |  | 
O=[N+]([O-])[O-].[Ag+] [Silver nitrate, silver nitrate] |  |  |  |  |  |  |  | 25 |  |  | 25 | 6.25 | 6.25 |  | 
Clc1ccc(COC(Cn2ccnc2)c2ccc(Cl)cc2Cl)c(Cl)c1 (centres unmarked) [Miconazole nitrate, 1-{2-(2,4-dichlorophenyl)-2-[(2,4-dichlorophenyl)methoxy]ethyl}-1H-imidazole] |  |  |  | 62.5 |  |  |  |  |  |  |  |  |  | > 500 | > 500
